Experiments:
[1] = system: fasted Wistar rats; assay: Gastric emptying of a phenol red-labelled methylcellulose meal in fasted naive rats (model for gastroparesis); type: in vivo, rat; conditions: for increase in gastric emptying relative to the vehicle control group: 15 min after meal; for potency in gastric emptying compared to metoclopramide, based on the different dose levels: dose-dependent, FIG. 2
Experimental: To examine the effects of compounds of the invention in a model for gastroparesis, compounds were evaluated for possible effects on gastric emptying in fasted rats as described below.
GHRP-6 and test samples were dissolved in vehicle of 9% HPBCD/0.9% NaCl. Immediately following oral administration of methylcellulose (2%) containing phenol red (0.05%) (2 mL/rat), test substances or vehicle (9% HPBCD/0.9% NaCl) were each administered intravenously (i.v.) at a dosing volume of 5 mL/kg.
Test substances were each administered intravenously to a group of 5 O/N-fasted Wistar derived male rats weighing 200±20 g immediately after methylcellulose (2%) containing phenol red (0.05%) was administered orally at 2 mL/animal. The animals were then sacrificed 15 minutes later. The stomach was immediately removed, homogenized in 0.1 N NaOH (5 mL) and centrifuged. Following protein precipitation by 20% trichloroacetic acid (0.5 mL) and re-alkalization of the supernatant with 0.1 N NaOH, total phenol red remaining in the stomach was determined by a colorimetric method at 560 nm. A 30 percent or more (≧30%) increase in gastric emptying, detected as the decrease in phenol red concentration in the stomach relative to the vehicle control group, is considered significant.
• 1. To ascertain data for representative compounds 25 and 298 as prokinetic agents with potent effects on gastric emptying, a model for gastroparesis. Methods • 1. Overnight-fasted rats (male, Wistar, ˜200 g, N=5/group) were given a meal of methylcellulose (2%) by intragastric gavage. The meal was labeled with phenol red (0.05%). • 2. […] Animals were sacrificed 15 minutes later; the stomach was immediately removed and homogenized in 0.1 N NaOH and centrifuged. • 4. Total phenol red remaining in the stomach was quantified by a colorimetric method at 560 nm. • 5. A >30% increase in gastric emptying, detected based on the phenol red concentration in comparison to the control group, is considered significant. Results

[2] = system: rats dosed with morphine; assay: Rat model of opioid-induced bowel dysfunction (morphine-delayed gastric emptying and small intestinal transit); type: in vivo; conditions: morphine 3 mg/kg s.c.
Text: Opioid analgesics, such as morphine, are well known to delay gastrointestinal transit, which is a noted side effect for this class of drugs. (Greenwood-van Meerveld, B.; Gardner, C. J.; Little, P. J.; Hicks, G. A.; DeHaven-Hudkins, D. L. Preclinical studies of opioids and opioid antagonists on gastrointestinal function. Neurogastroenterol. Motil. 2004, 16, 46-53.) The clinical term for this syndrome is opioid-induced bowel dysfunction (OBD). The aim of this study was to determine whether test compounds can effectively reverse morphine-induced delayed gastric emptying and small intestinal transit in a rat model of opioid-induced bowel dysfunction.
• 1. Rats (male, Sprague-Dawley, 250-300 g, N=6-7/gp) were implanted with jugular vein catheters to accommodate dosing of test articles. • 2. Overnight-fasted rats were administered morphine by sub-cutaneous injection (3 mg/kg). • 3. After 60 minutes, rats were dosed (i.v. bolus) with vehicle, test compound (0.30, 1.0 mg/kg) or GHRP-6 (0.02 mg/kg) followed by intragastric gavage of ^99mTc methylcellulose (2%) meal. • 4. After 15 minutes, the rats were euthanized and the stomach and consecutive 10 cm segments of the intestine are isolated. Radioactivity (^99mTc) in each tissue isolate is measured as a means of measuring gastric emptying and small intestinal transit. • 5. One-way ANOVA, Dunnet's post-hoc statistical test was applied. • 6.
• 1. […] Methods • 1. Rats (male, Sprague-Dawley, 250-300 g) were implanted with jugular vein catheters to accommodate dosing of test articles. • 2. Overnight-fasted rats were administered morphine (3 mg/kg s.c.). • 3. […] After 15 min, the rats were euthanized and the stomach and consecutive 10 cm segments of the intestine are isolated. Radioactivity (^99mTc) in each tissue isolate was measured as a means of measuring the transit of the meal. • 5. Results

[3] = system: POI rats concurrently dosed with morphine; assay: Combination rat model of post-operative ileus and opioid-induced bowel dysfunction; type: in vivo
[4] = GHRP-6 0.02 mg/kg i.v., mean ± sem

## CCC(C)[C@@H]1NCCOc2ccccc2CCCNC(=O)[C@@H](Cc2ccc(Cl)cc2)NC(=O)[C@@H](C)N(C)C1=O (stereo partly drawn) [Compound 25]
[1]; 30 μg/kg
  gastric emptying: significant gastric emptying
[1]; 100 μg/kg i.v.
  increase in gastric emptying relative to the vehicle control group: 39%
[1]
  potency in gastric emptying compared to metoclopramide, based on the different dose levels: ~100 fold

## CN1CC[C@]23c4c5ccc(O)c4O[C@H]2[C@@H](O)C=C[C@H]3[C@H]1C5 [morphine]
[2]; preliminary study
  gastric emptying and small intestinal transit: significantly delayed

## CCN(CC)CCNC(=O)c1cc(Cl)c(N)cc1OC [metoclopramide, reference compound]
[1]; 10 mg/kg i.v.
  increase in gastric emptying relative to the vehicle control group: 41%

## C[C@@H]1CN[C@@H](C2CC2)C(=O)N(C)[C@H](C)C(=O)N[C@H](Cc2ccc(F)cc2)C(=O)NCCCc2ccccc2O1 [Compound 298]
[1]
  potency in gastric emptying compared to metoclopramide, based on the different dose levels: ~100 fold
[3]; 0.1, 0.3, 1, 3 mg/kg i.v., FIG. 8
  gastric emptying: significantly accelerates
[3]; 0.1, 0.3, 1, 3 mg/kg i.v., FIG. 9
  small intestinal transit: significantly accelerates
[3]; combination of POI and OBD
  lowest dose level effective at restoring GI motility: 0.1 mg/kg

## GHRP-6
[1]; 20 μg/kg i.v.
  increase in gastric emptying relative to the vehicle control group: 40%
[2]; [4]
  Geometric Center: 3.38 ± 0.76
  Intragastric Residue (%): 0.48 ± 0.10%

Reference: patent publication US8088733B2 (Tranzyme Pharma Inc., priority 2006, dated 2012)
